Values quoted from earlier work in US6602892B1, “Methods for nicotine replacement dosage determination” (priority 1993, dated 2003).

Conditions: in vivo

CN1C(=O)CC[C@H]1c1cccnc1 [cotinine]
half life: about 20 hours

CN1CCCC1c1cccnc1 (centres unmarked) [nicotine]
half life: two
